Measured values taken from ChEMBL document CHEMBL5696442, “Discovery of type II inhibitors of TGFβ-activated kinase 1 (TAK1) and mitogen-activated protein kinase kinase kinase kinase 2 (MAP4K2)” (J Med Chem, 2015).
Activity calls are given as the source filed them. The rule behind the calls is not given here.

Columns and labels:
[1] = molecular target: Cyclin-dependent kinase 11B (Homo sapiens) (UniProt P21127); experiment: Inhibition of CDK11 Lys2 labeling site in human Huh-7 cells at 1 uM by KiNativ Profiling analysis relative to control; type: cell-based
[2] = molecular target: Serine/threonine-protein kinase 10 (Homo sapiens) (UniProt O94804); experiment: Inhibition of LOK Lys2 labeling site in human Huh-7 cells at 1 uM by KiNativ Profiling analysis relative to control; type: cell-based
[3] = molecular target: Phosphatidylinositol 4,5-bisphosphate 3-kinase catalytic subunit beta isoform (Homo sapiens) (UniProt P42338); experiment: Inhibition of PIK3CB ATP labeling site harbouring VFGEDSVGVIFKNGDDLRQDMLTLQMLR in human Huh-7 cell lysate at 1 uM by KiNativ Profiling analysis relative to control; type: subcellular
[4] = system: Mast/stem cell growth factor receptor Kit (Homo sapiens), P10721 [V559D]; experiment: Inhibition of KIT V559D mutant (unknown origin) at 1 uM by Ambit Kinomescan binding assay relative to control; values are per cent of control
[5] = molecular target: Receptor tyrosine-protein kinase erbB-3 (Homo sapiens) (UniProt P21860); experiment: Inhibition of HER3/ErbB3 ACT labeling site in human A-375 cells at 5 uM by KiNativ Profiling analysis relative to control; type: cell-based
[6] = molecular target: Serine/threonine-protein kinase 25 (Homo sapiens) (UniProt O00506); experiment: Inhibition of YSK1 (unknown origin) at 1 uM by Ambit Kinomescan binding assay relative to control; values are per cent of control
[7] = molecular target: Casein kinase II subunit alpha (Homo sapiens) (UniProt P68400); experiment: Inhibition of CSNK2A1 (unknown origin) at 1 uM by Ambit Kinomescan binding assay relative to control; values are per cent of control
[8] = molecular target: Cyclin-dependent kinase 2 (Homo sapiens) (UniProt P24941); experiment: Inhibition of CDK2 Lys2 labeling site in human A-375 cells at 5 uM by KiNativ Profiling analysis relative to control; type: cell-based
[9] = system: Receptor-type tyrosine-protein kinase FLT3 (Homo sapiens), P36888 [R834Q]; experiment: Inhibition of FLT3 R834Q mutant (unknown origin) at 1 uM by Ambit Kinomescan binding assay relative to control; values are per cent of control
[10] = molecular target: T1, Serine/threonine-protein kinase ULK3 (Homo sapiens) (UniProt Q6PHR2); experiment: Inhibition of ULK3 (unknown origin) at 10 uM by Ambit Kinomescan binding assay relative to control; values are per cent of control
T1 sequence (whole entry): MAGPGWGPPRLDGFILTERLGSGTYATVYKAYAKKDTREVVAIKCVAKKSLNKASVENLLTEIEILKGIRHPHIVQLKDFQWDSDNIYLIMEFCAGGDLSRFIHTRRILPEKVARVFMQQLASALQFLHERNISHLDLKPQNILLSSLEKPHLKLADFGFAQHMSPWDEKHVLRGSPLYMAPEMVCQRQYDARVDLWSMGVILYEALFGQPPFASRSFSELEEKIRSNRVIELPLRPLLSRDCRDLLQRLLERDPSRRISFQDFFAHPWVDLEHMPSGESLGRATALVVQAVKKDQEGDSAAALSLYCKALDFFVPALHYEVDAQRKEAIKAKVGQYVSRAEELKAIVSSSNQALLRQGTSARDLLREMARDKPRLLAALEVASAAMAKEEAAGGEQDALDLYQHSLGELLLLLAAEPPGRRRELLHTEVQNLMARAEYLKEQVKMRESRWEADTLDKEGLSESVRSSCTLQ

[11] = molecular target: Serine/threonine-protein kinase MARK2 (Homo sapiens) (UniProt Q7KZI7); experiment: Inhibition of MARK2 (unknown origin) at 10 uM by Ambit Kinomescan binding assay
[12] = molecular target: T2, Eukaryotic elongation factor 2 kinase (Homo sapiens) (UniProt O00418); experiment: Inhibition of eEF2K ATP labeling site harbouring YIKYNSNSGFVRDDNIR in human A-375 cells at 0.5 uM by KiNativ Profiling analysis relative to control; type: cell-based
T2 sequence (whole entry): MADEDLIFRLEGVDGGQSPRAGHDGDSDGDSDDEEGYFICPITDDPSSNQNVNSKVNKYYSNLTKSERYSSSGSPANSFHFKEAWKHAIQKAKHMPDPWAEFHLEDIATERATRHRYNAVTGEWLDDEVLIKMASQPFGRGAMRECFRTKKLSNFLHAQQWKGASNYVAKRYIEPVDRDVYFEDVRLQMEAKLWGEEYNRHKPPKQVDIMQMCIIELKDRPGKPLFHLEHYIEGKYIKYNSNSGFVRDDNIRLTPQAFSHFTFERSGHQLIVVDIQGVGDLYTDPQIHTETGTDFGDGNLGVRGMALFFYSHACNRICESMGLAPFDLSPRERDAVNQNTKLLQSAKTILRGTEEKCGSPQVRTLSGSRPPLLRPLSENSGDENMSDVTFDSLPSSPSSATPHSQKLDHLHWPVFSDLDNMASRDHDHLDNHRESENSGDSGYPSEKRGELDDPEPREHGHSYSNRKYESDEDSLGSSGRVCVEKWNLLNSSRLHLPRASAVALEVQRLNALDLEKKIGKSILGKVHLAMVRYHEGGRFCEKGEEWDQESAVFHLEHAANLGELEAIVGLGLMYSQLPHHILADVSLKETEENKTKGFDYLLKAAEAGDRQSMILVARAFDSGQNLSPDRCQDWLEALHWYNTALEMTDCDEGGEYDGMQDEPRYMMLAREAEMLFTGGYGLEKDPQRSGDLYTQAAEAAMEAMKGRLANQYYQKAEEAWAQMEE

[13] = molecular target: Calcium/calmodulin-dependent protein kinase type II subunit gamma (Homo sapiens) (UniProt Q13555); experiment: Inhibition of CAMK2g K1 labeling site harbouring KTSTQEYAAKIINTK in human Huh-7 cells at 1 uM by KiNativ Profiling analysis relative to control; type: cell-based
[14] = molecular target: STE20-like serine/threonine-protein kinase (Homo sapiens) (UniProt Q9H2G2); experiment: Inhibition of SLK K2 labeling site harbouring DLKAGNILFTLDGDIK in human Huh-7 cells at 1 uM by KiNativ Profiling analysis relative to control; type: cell-based
[15] = molecular target: Serine/threonine-protein kinase ATR (Homo sapiens) (UniProt Q13535); experiment: Inhibition of ATR ATP labeling site in human A-375 cells at 0.5 uM by KiNativ Profiling analysis relative to control; type: cell-based
[16] = molecular target: DNA-dependent protein kinase catalytic subunit (Homo sapiens) (UniProt P78527); experiment: Inhibition of PRKDC ATP labeling site harbouring EHPFLVKGGEDLR in human Huh-7 cells at 1 uM by KiNativ Profiling analysis relative to control; type: cell-based
[17] = molecular target: Hepatocyte growth factor receptor (Homo sapiens) (UniProt P08581); experiment: Inhibition of MET ACT labeling site in human Huh-7 cells at 10 uM by KiNativ Profiling analysis relative to control; type: cell-based
[18] = molecular target: Atypical kinase COQ8A, mitochondrial (Homo sapiens) (UniProt Q8NI60); experiment: Inhibition of ADCK3 (unknown origin) at 10 uM by Ambit Kinomescan binding assay

Chain of DNA-dependent protein kinase catalytic subunit (Homo sapiens) (P78527 whole entry): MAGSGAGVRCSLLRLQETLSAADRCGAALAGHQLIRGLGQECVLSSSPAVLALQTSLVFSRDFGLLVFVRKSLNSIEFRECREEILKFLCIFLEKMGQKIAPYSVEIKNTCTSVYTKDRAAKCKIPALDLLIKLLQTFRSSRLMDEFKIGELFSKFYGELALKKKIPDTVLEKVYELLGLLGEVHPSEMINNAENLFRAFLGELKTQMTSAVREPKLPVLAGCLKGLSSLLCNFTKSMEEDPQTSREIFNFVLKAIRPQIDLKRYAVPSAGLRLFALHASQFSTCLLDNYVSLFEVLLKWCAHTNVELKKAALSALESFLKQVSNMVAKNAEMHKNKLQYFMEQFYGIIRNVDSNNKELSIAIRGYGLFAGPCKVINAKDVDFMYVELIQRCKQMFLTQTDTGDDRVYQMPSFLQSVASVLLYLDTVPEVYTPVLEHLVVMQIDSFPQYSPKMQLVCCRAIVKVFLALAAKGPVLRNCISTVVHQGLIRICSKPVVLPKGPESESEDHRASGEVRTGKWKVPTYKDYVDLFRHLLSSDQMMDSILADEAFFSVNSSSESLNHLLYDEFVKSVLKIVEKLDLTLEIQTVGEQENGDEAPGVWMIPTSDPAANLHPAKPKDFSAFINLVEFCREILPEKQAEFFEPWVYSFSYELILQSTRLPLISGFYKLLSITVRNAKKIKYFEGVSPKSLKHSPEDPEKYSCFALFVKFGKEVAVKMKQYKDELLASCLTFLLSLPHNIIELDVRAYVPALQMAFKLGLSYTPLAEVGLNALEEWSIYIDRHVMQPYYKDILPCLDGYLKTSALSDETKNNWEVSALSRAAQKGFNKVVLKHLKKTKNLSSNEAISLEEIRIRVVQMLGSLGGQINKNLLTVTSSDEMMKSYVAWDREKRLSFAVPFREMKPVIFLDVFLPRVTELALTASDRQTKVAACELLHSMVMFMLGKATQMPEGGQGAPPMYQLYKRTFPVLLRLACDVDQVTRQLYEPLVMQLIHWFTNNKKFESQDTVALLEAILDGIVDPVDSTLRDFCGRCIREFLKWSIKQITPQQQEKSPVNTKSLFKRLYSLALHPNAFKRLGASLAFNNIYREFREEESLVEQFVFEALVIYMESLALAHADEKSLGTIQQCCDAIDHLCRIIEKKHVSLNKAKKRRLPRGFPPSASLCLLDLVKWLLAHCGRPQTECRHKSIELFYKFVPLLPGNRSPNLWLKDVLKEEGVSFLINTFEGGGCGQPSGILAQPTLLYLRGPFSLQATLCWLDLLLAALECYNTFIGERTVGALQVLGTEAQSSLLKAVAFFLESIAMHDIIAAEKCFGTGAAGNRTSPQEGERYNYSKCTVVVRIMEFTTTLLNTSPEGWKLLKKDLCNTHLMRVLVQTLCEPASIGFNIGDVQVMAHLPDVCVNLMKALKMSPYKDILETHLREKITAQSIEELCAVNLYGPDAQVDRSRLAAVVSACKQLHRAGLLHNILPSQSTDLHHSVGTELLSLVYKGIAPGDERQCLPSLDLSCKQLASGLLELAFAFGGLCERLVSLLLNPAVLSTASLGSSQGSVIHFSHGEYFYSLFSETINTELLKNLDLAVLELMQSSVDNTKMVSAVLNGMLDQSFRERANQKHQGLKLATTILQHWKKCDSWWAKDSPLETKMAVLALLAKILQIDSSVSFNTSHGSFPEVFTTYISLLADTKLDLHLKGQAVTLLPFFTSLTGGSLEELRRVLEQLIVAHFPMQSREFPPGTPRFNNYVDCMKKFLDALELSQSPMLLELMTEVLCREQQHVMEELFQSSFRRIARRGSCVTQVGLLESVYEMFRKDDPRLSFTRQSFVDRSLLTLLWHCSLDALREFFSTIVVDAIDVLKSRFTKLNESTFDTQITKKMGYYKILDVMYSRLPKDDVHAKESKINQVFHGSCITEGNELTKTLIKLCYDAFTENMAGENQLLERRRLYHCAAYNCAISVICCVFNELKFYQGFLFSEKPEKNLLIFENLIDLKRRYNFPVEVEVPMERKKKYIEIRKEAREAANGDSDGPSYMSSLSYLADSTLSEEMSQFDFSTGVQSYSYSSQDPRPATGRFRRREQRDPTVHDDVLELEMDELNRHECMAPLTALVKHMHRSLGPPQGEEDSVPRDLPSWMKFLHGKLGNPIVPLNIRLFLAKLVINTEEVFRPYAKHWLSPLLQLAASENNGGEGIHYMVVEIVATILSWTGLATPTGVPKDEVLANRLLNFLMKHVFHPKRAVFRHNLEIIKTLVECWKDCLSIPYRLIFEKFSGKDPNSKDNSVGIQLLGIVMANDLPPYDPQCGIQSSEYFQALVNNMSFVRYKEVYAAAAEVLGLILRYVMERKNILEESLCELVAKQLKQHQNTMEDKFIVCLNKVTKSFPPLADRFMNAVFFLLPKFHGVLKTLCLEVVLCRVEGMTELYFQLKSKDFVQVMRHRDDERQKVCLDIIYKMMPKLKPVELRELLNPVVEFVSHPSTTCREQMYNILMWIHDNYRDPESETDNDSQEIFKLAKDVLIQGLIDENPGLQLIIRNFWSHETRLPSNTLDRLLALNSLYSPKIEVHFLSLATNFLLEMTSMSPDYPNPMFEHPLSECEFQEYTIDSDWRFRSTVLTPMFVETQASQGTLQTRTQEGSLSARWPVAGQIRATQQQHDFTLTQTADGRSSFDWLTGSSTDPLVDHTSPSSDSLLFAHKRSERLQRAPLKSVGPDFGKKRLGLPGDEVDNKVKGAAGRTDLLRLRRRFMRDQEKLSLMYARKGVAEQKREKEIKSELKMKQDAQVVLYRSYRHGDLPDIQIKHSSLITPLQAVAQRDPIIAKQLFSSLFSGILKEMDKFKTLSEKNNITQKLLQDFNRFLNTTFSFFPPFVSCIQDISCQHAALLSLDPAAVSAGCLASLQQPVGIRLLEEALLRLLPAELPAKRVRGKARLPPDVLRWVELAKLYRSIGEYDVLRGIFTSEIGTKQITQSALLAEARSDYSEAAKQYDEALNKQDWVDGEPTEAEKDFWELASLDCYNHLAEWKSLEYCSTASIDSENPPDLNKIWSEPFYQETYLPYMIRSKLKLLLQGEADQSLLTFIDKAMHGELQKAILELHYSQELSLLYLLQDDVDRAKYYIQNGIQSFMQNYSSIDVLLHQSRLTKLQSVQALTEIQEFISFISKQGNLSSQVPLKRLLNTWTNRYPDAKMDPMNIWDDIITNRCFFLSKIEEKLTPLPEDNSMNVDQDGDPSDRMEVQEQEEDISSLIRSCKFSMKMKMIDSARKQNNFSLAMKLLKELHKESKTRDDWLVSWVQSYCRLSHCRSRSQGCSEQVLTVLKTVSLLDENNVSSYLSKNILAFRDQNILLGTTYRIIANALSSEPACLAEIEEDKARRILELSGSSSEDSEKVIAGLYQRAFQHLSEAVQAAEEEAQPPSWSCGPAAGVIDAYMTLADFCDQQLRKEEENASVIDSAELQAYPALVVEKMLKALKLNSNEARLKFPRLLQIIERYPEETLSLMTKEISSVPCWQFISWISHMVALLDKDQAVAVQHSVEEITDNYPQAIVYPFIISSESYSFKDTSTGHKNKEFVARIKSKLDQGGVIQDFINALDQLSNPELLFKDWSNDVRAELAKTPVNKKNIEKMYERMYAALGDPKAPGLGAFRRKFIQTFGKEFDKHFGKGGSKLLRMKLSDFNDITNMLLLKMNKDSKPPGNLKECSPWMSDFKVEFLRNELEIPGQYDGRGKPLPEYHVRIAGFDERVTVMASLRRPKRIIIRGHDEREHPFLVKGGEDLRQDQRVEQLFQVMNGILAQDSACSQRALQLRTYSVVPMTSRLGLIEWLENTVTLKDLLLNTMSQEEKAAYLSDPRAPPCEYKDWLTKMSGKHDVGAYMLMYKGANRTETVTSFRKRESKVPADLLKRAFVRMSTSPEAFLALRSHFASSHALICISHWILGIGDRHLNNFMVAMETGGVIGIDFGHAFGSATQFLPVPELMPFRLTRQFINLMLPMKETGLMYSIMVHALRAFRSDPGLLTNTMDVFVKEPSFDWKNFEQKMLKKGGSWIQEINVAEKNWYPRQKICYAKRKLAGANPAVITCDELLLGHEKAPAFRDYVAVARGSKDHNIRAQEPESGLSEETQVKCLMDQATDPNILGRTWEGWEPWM
Chain of Mast/stem cell growth factor receptor Kit (Homo sapiens), P10721 [V559D] (P10721 whole entry V559D): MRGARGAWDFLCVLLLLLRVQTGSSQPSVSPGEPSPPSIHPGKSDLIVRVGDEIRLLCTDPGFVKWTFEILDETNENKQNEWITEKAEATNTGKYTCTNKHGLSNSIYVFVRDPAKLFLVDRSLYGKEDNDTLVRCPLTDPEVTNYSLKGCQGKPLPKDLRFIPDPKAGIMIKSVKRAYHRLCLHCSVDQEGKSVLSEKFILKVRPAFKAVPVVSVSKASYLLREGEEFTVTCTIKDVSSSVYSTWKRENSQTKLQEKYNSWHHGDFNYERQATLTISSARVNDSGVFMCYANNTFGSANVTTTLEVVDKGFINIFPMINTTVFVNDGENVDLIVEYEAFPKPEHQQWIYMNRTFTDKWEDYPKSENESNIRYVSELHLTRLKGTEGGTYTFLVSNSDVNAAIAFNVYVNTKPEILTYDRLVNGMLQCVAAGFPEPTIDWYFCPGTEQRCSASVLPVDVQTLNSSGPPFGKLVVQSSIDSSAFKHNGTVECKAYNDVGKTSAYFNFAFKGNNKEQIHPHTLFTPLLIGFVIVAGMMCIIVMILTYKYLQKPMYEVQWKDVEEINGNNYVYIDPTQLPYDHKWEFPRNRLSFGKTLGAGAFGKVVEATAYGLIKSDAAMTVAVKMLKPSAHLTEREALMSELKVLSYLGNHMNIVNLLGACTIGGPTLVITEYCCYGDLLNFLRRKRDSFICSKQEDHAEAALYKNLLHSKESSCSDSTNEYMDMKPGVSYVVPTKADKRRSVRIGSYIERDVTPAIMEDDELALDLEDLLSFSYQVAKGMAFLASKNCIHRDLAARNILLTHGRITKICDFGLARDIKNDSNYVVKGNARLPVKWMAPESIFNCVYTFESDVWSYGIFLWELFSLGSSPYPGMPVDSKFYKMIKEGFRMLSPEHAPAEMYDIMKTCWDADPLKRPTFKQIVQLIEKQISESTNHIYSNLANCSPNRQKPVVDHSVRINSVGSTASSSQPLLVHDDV

## CNc1cc(Oc2cc(C(=O)Nc3cc(N4CCN(C)CC4)cc(C(F)(F)F)c3)ccc2C)ncn1
[1]
  inhibition: 25.8%
[2]
  inhibition: 19%
[3]
  inhibition: 15.8%

## CCN1CCN(Cc2ccc(NC(=O)c3ccc(C)c(/C=C/c4cnc5[nH]ccc5c4OC)c3)cc2C(F)(F)F)CC1
[4]
  residual activity: 0.05%
[5]
  inhibition: -3.7%
[6]
  percent of control: 100%
[7]
  residual activity: 100%
[8]
  inhibition: 3.4%
[9]
  residual activity: 7.4%

## CCN1CCN(Cc2ccc(NC(=O)c3ccc(C)c(Oc4ccnc5[nH]ccc45)c3)cc2C(F)(F)F)CC1
[10]
  residual activity: 0.1%
[11]
  inhibition: inactive
[12]
  inhibition: 0.1%
[13]
  inhibition: 1.3%
[14]
  inhibition: 66.5%
[15]
  inhibition: 5.1%
[16]
  inhibition: 1.4%
[17]
  inhibition: -8%
[18]
  inhibition: inactive
